Legend:
Assay type in all cases: physicochemical, human
[1] = GC/MS of blood plasma sample: number of times of freezing and thawing (Table C)
Summary of the method: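 EDTA plasma from a healthy subject, cooled within 1 min or after 5+ min, centrifuged 4 °C/3000 rpm/15 min, frozen, then freeze-thawed 2, 4, 6 or 10 times. Methoximated, trimethylsilylated samples run by GC/MS (BPX5 column, EI, MRM). Values are detection intensity relative to 2 freeze-thaw cycles set as 1.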

[2] = LC/MS of serum sample: number of times of freezing and thawing (Table M); set-up: key to Rate of increase or decrease: detection intensity relative to 1 at 2 freeze-thaw cycles; conditions: for Number of times when compound is affected / Increase or decrease: serum sample, LC/MS; for Number of times when compound is affected: detection intensity changed by 30% or more vs 2 times of freezing and thawing; for Increase or decrease: detection intensity vs 2 times of freezing and thawing
Summary of the method: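 Serum was isolated at room temperature after centrifugation at room temperature, 3500 rpm, 5 minutes, then frozen and freeze-thawed 2, 4, 6 or 10 times. LC/MS used a Discovery HS F5-3 column at 40° C with formic acid water/acetonitrile, electrospray MRM. Intensity is relative to 2 freeze-thaw cycles.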

[3] = LC/MS of blood plasma sample: time from blood collection to centrifugation (Table D); conditions: for Increase or decrease: detection intensity; for Increase or decrease / Rate of increase or decrease: blood collection to centrifugation; for Rate of increase or decrease: detection intensity relative to 1 at 15 minutes
Summary of the method: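 Healthy-subject blood (5 mL, EDTA) cooled and held at 4 °C before centrifugation (4 °C, 3000 rpm, 15 min), with plasma then frozen. LC/MS on Discovery HS F5-3 column at 40 °C, 0.1% formic acid water/acetonitrile, 0.25 mL/min, electrospray, MRM; intensities relative to 15 min collection-to-centrifugation set as 1.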

[4] = GC/MS of blood plasma sample: time from blood collection to centrifugation (Table A); conditions: blood collection to centrifugation
Summary of the method: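 EDTA blood from a healthy subject was cooled at 4° C, centrifuged at 4° C, 3000 rpm, 15 minutes, and plasma was frozen. After methoxymation and trimethylsilylation, samples ran on GC/MS (BPX5 column, 60-330° C gradient, electron ionization, MRM). Intensity is relative to 15 minutes from collection to centrifugation.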

[5] = LC/MS of blood plasma sample: time from blood collection to cooling of blood (Table E); set-up: key to Rate of increase or decrease / Rate of increase or decrease (first value, increase): detection intensity relative to ≤1 min to cooling = 1; conditions: for Rate of increase or decrease: detection intensity relative to 1 at 1 minute or less, blood collection to cooling 5 minutes; for Increase or decrease: detection intensity, blood collection to cooling 5 minutes or more vs 1 minute or less; for Rate of increase or decrease (second value, decrease) / Rate of increase or decrease (first value, increase): different from individual to individual, relative to 1 at 1 minute or less, collection to cooling 5 minutes; for Rate of increase or decrease (second value, decrease): individuals with decrease; for Rate of increase or decrease (first value, increase): individuals with increase
Procedure: At room temperature, 5 mL of blood from a healthy subject was taken into a blood-collecting vessel containing EDTA, and the blood-collecting vessel was inverted for mixing, then cooled, and allowed to stand at 4° C. Here, in order to investigate how the detection intensity of molecules contained in the sample was affected in a case where the time to cooling was set to 5 minutes or more as compared to that in a case where the time to cooling was set to 1 minute or less, preparations were performed under both the former condition and the latter condition. After standing, the blood sample was subjected to centrifugation under a condition of 4° C., 3000 rpm, and 15 minutes. […] After centrifugation, the blood-collecting vessel was left to stand at room temperature for 30 minutes, and the blood plasma was isolated during this 30 minutes. The obtained blood plasma sample was frozen and stored. Here, in order to investigate how the detection intensity of molecules contained in the sample was affected in cases where freezing and thawing was performed 4 times, 6 times, and 10 times after freezing as compared to that in a case where freezing and thawing was performed 2 times after freezing, freezing and thawing was performed under the respective conditions of 2, 4, 6, and 10 times.
(§1) Frozen blood plasma samples and serum samples were subjected to GC/MS or LC/MS. In GC/MS, the blood plasma samples and serum samples were subjected to methoxymation and trimethylsilylation and then introduced to GC-MS.
(§2) Analysis column: Discovery HS F5-3 (inner diameter of 2.1 mm, length of 150 mm, film thickness of 3 μm) (Sigma-Aldrich)
(§3) Column temperature: 40° C.
(§4) (A) 0.1% formic acid (dissolved in water)
(§5) (B) 0.1% formic acid (dissolved in acetonitrile)
(§6) Flow velocity: 0.25 mL/min
(§7) Ionization method: electrospray
(§8) Temperature: • Desolvation Line (DL) temperature: 250° C. • Heat block temperature: 400° C. • Interface temperature: 300° C.
(§9) Gas flow rate: • Nebulizer gas flow rate: 3.0 L/min • Drying gas flow rate: 10.0 L/min • Heating gas flow rate: 10.0 L/min
(§10) Mode: multiple reaction monitoring (MRM)
The rate of increase or decrease in Table E is the value of detection intensity relative to 1 that is the detection intensity in a case where the time from blood collection to cooling is set to 1 minute or less.

[6] = LC/MS of blood plasma sample: number of times of freezing and thawing (Table F); conditions: for Rate of increase or decrease: detection intensity relative to 1 at 2 times; for Increase or decrease: detection intensity
Summary of the method: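 Human blood from a healthy subject drawn into EDTA tubes, cooled to 4° C within 1 min or after ≥5 min, centrifuged at 4° C, 3000 rpm, 15 min. Plasma frozen, then freeze-thawed 2, 4, 6 or 10 times and analysed by LC/MS (ESI, MRM). Intensities expressed relative to 2 freeze-thaw cycles set as 1.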

[7] = LC/MS of serum sample: time from centrifugation to isolation (Table K); set-up: key to Rate of increase or decrease: detection intensity relative to the 30-minute value set as 1; conditions: for Rate of increase or decrease: detection intensity relative to 1 at 30 minutes; for Increase or decrease / Time when compound is affected: serum sample, LC/MS; for Increase or decrease: detection intensity vs 30 minutes from centrifugation to isolation; for Time when compound is affected: time from centrifugation to isolation, detection intensity changed by 30% or more vs 30 minutes
Procedure: After standing, the blood sample was subjected to centrifugation under a condition of room temperature, 3500 rpm, and 5 minutes. […] After centrifugation, the blood-collecting vessel was left to stand at room temperature, and the serum was isolated during this time. Here, in order to investigate how the detection intensity of molecules contained in the sample was affected in cases where the time during which the blood-collecting vessel was left at room temperature was set to 1 hour and 6 hours as compared to that in a case where the time was set to 30 minutes, preparations were performed under the respective conditions of 30 minutes, 1 hour, and 6 hours. The obtained serum sample was frozen and stored. Here, in order to investigate how the detection intensity of molecules contained in the sample was affected in cases where freezing and thawing was performed 4 times, 6 times, and 10 times after freezing as compared to that in a case where freezing and thawing was performed 2 times after freezing, freezing and thawing was performed under the respective conditions of 2, 4, 6, and 10 times.
as §1, §2, §3, §4, §5, §6, §7, §8, §9, §10
The rate of increase or decrease in Table K is the value of detection intensity relative to 1 that is the detection intensity in a case where the time from centrifugation to isolation is set to 30 minutes.

[8] = LC/MS of serum sample: time from blood collection to centrifugation (Table J); conditions: for Rate of increase or decrease: after 4 hours from blood collection to centrifugation, detection intensity relative to 1 at 15 minutes; for Increase or decrease / Time when compound is affected: serum sample, LC/MS; for Increase or decrease: detection intensity vs 15 minutes from blood collection to centrifugation; for Time when compound is affected: time from blood collection to centrifugation, detection intensity changed by 30% or more vs 15 minutes
Summary of the method: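 Serum from blood centrifuged at room temperature, 3500 rpm, 5 min, then frozen; analysed by LC/MS on a Discovery HS F5-3 column at 40 °C. Mobile phase: 0.1% formic acid in water/acetonitrile, 0.25 mL/min, electrospray MRM. Values are intensity relative to a 15 min collection-to-centrifugation time.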

[9] = 6 times of freezing and thawing, relative to 1 at 2 times, different from individual to individual, first value (increase)
[10] = 6 times of freezing and thawing, relative to 1 at 2 times, different from individual to individual, second value (decrease)
[11] = freezing and thawing 10 times vs 2 times
[12] = 4 times of freezing and thawing, detection intensity relative to 1 at 2 times
[13] = after 1 hour from centrifugation to isolation
[14] = freezing and thawing 4 times vs 2 times
[15] = 6 times of freezing and thawing, detection intensity relative to 1 at 2 times
[16] = freezing and thawing 6 times vs 2 times

Row | SMILES | Number of times when compound is affected [2] [times] | Increase or decrease [2] | Rate of increase or decrease [5] | Increase or decrease [5] | Increase or decrease [7] | Time when compound is affected [7] | Rate of increase or decrease ([6]; freezing and thawing 4 times) | Increase or decrease [6, 14] | Rate of increase or decrease ([3]; after 4 hours) | Increase or decrease ([3]; after 4 hours vs 15 minutes) | Increase or decrease [8] | Time when compound is affected [8] | further results
1 | CN(C)CC(=O)O [Dimethylglycine] | 6 | Different from individual | 0.66 | Decrease | – | – | – | – | – | – | – | – | Rate of increase or decrease ([1]; detection intensity relative to 1 at 2 times, freezing and thawing 10 times): 1.34; Increase or decrease ([1]; detection intensity, freezing and thawing 10 times vs 2 times): Increase; Rate of increase or decrease [2, 9]: 1.34; Rate of increase or decrease [2, 10]: 0.61; Increase or decrease ([3]; after 12 hours vs 15 minutes): Different from individual; Rate of increase or decrease (second value, decrease) ([3]; different from individual to individual, individuals with decrease, relative to 1 at 15 minutes, collection to centrifugation, after 12 hours): 0.63; Rate of increase or decrease (first value, increase) ([3]; different from individual to individual, individuals with increase, relative to 1 at 15 minutes, collection to centrifugation, after 12 hours): 1.57; Rate of increase or decrease ([4]; detection intensity relative to 1 at 15 minutes, after 12 hours): 1.41; Increase or decrease ([4]; detection intensity, after 12 hours vs 15 minutes): Increase; Rate of increase or decrease ([6]; freezing and thawing 10 times): 1.37; Increase or decrease [6, 11]: Increase
2 | Nc1ncnc2nc[nH]c12 [Adenine] | 4 | Decrease | 1.31 | Increase | Decrease | After 1 hour hours | 1.37 | Increase | – | – | – | – | Rate of increase or decrease [2, 12]: 0.57; Rate of increase or decrease ([3]; after 6 hours): 0.63; Increase or decrease ([3]; after 6 hours vs 15 minutes): Decrease; Rate of increase or decrease [7, 13]: 0.39
3 | C[C@H](CCC(=O)O)[C@H]1CC[C@H]2[C@@H]3[C@H](O)C[C@@H]4C[C@H](O)CC[C@]4(C)[C@H]3C[C@H](O)[C@]12C [Cholic acid] | 6 | Decrease | 1.36 | Increase | – | – | – | – | – | – | – | – | Rate of increase or decrease [2, 15]: 0.57; Rate of increase or decrease ([3]; after 12 hours): 1.99; Increase or decrease ([3]; after 12 hours vs 15 minutes): Increase; Rate of increase or decrease ([6]; freezing and thawing 10 times): 3.26; Increase or decrease [6, 11]: Increase
4 | Nc1ncnc2c1ncn2[C@@H]1O[C@H](COP(=O)(O)O)[C@@H](O)[C@H]1O [Adenosine monophosphate] | 4 | Decrease | – | Different from individual | Decrease | After 1 hour hours | 1.50 | Increase | 1.56 | Increase | – | – | Rate of increase or decrease [2, 12]: 0.23; Rate of increase or decrease [7, 13]: 0.13; Rate of increase or decrease (second value, decrease) [5]: 0.62; Rate of increase or decrease (first value, increase) [5]: 1.43
5 | N[C@@H](Cc1ccc(O)c(O)c1)C(=O)O [Dopa] | 6 | Different from individual | 2.30 | Increase | – | – | 0.95 | Decrease | 2.57 | Increase | Decrease | After 4 hours | Rate of increase or decrease [2, 9]: 1.30; Rate of increase or decrease [2, 10]: 0.31; Rate of increase or decrease [8]: 0.56
6 | NC(=O)c1cccnc1 [Nicotinamide] | 6 | Decrease | 1.40 | Increase | – | – | – | – | 1.44 | Increase | Increase | After 4 hours | Rate of increase or decrease [2, 15]: 0.69; Rate of increase or decrease [8]: 2.16; Increase or decrease [6, 16]: Increase
7 | O=C(O)[C@@H]1CCCN1 [Proline] | 10 | Decrease | 1.41 | Increase | Increase | After 6 hours | – | – | 2.20 | Increase | Increase | After 12 hours | Rate of increase or decrease ([2]; 10 times of freezing and thawing, detection intensity relative to 1 at 2 times): 0.59; Rate of increase or decrease ([7]; after 6 hours from centrifugation to isolation): 2.35
8 | Nc1nc2c(ncn2[C@@H]2O[C@H](COP(=O)(O)O)[C@@H](O)[C@H]2O)c(=O)[nH]1 [Guanosine monophosphate] | – | – | – | Different from individual | – | – | – | – | 1.89 | Increase | – | – | Rate of increase or decrease (second value, decrease) [5]: 0.59; Rate of increase or decrease (first value, increase) [5]: 1.47; Rate of increase or decrease ([6]; freezing and thawing 6 times): 1.95; Increase or decrease [6, 16]: Increase
